The test system of one assay is COX2. The assay is described as follows: COX2 protein level in WT and GluN2A-KO mouse neuronal cultures (immunoblot). Particulars: L-homocysteine 50 μM, four hours. Type of assay: cell-based, mice. The method, then: Equal protein from total cell lysates obtained from rat and mice neuronal cultures were resolved in 7.5% SDS-PAGE, and subjected to immunoblotting procedure as described earlier (Poddar and Paul, 2009, J Neurochem 110:1095-1106). Blots were analyzed with antibodies as described in each experiment. All primary antibodies (anti-COX2, anti-B-tubulin) and secondary-horse radish peroxidase conjugated antibody concentrations were used according to recommendations provided by the manufacturer. Signals from immune complexes in the blots were developed using West Pico supersignal chemiluminescence reagents and then captured on X-ray films. Densitometric analysis of the images was performed using the Image J software.
Rat and mice neuronal cultures were washed with PBS (pH 7.4), containing sodium pyrophosphate and sodium vanadate as phosphatase inhibitors, and harvested in SDS sample buffer (Laemmli, 1970, Nature 227:680-685). Equal protein from total cell lysates, estimated using BCA kit, was resolved by SDS-PAGE (7.5%) followed by western blotting on PVDF membranes. Immunoblot analysis was performed by first blocking with 5% non-fat dry milk for 1 h at room temperature followed by incubation with either COX2 immunoblot analysis (Poddar and Paul, 2009, J Neurochem 110:1095-1106) as described in each experiment. […]
A general note: A western blot detects proteins with antibodies after separation by electrophoresis.

Assay [1] concerns rat cortical neuron cultures. The assay is described as follows: OGD / re-oxygenation cell death, Hoechst DNA staining. To be noted: OGD two hours in the presence of homocysteine 50 μM, re-oxygenation 22 hours, vs OGD alone. Type of assay: cell-based. The method, then:
At specified time periods (one hour, two hours, and three hours) during OGD alone or OGD in the presence of L-Hcy (50 μM), cells were removed from the chamber and lysed for immunoblot analysis. Some cultures were treated with L-Hcy (three hours) during the OGD insult in the presence or absence of NVP-AAM077 (30 nM; 3 h). […] Cells were then subjected to staining with Hoechst 33342 dye for 15 minutes, washed extensively with PBS, and analyzed using fluorescent microscopy to assess nuclear damage. To quantitatively assess the percentage of pyknotic nuclei, a total of 1000 cells were counted for each set of experiments (Poddar et al., 2010, J Neurochem 115, 1350-1362).

In assay [2] the test system is neuron cultures from WT and GluN2A-KO mice. The assay is described as follows: Neuronal cell death by Hoechst DNA staining, WT and GluN2A-KO mouse neuron cultures. Format: cell-based. Particulars: for neuronal death: homocysteine 50 μM, 18 hours; for cell death: L-homocysteine 50 μM, 24 hours. The method, then:
Neurons were subjected to staining with Hoechst 33342 dye for 15 minutes, washed extensively with PBS, and analyzed using fluorescent microscopy to assess nuclear damage. Imaging was performed with a Zeiss Axiovert 200M fluorescence microscope with attached AxioCam CCD camera using 20× objective lens (Carl Zeiss, Thomwood, N.Y.). To quantitatively assess the percentage of pyknotic nuclei a total of 1000 cells were counted for each set of experiments. Mean±SEM (n=3) were used for statistical comparison using ANOVA (Bonferroni's multiple comparison test). Differences were considered significant when p<0.05.
[…] Glutamate treated cells were then maintained in their original medium for another 17 hours. For some experiments, neurons were treated with L-homocysteine or glutamate in the presence of NVP-AAM077 or PD98059. The neurons were then fixed and stained with Hoechst 33342 dye as previously described (Poddar and Paul, 2009, J Neurochem 110:1095-1106). Percentage of pyknotic nuclei was quantitatively assessed by fluorescent microscopy to determine the extent of neuronal death.

Assay [3] deals with hyperhomocysteinemic rats subjected to MCAO. The assay is described as follows: Accelerated Rotarod test after MCAO. Particulars: HHcy rats, day 8 post MCAO, NVP-AAM077 1.2 mg/kg; untreated HHcy 96.99±4.11 sec. Type of assay: in vivo, male Wistar rats. How it is done: (§1) All rats were subjected to a battery of behavioral tests on day 7 (CatWalk), day 8 (cylinder and rotarod tests) and day 9 (adhesive test) after MCAO to evaluate normal gait, motor coordination and sensory motor functions. Habituation and training (3 days) was performed for one week before MCAO. The first two trainings days were before osmotic pump implantation and the third training day was after pump implantation. An experienced observer blinded to the experimental conditions evaluated all behavioral parameters.
Accelerated Rotarod test: Control, hyperhomocysteinemic and NVP-AAM077 treated hyperhomocysteinemic rats were subjected to the accelerated Rotarod test to evaluate impairment of motor co-ordination and balance following stroke (Bouet et al., 2007, Exp Neurol 203:555-567; Schaar et al., 2010, Exp Transl Stroke Med 2:13). Rats were placed on a rotating cylindrical rod accelerating from 0 to 50 rpm for a period of 180 seconds, and their latency to fall was recorded. The mean of four runs (10 min rest between trials) was used for statistical analysis. One hyperhomocysteinemic rat was excluded from the study as the rat jumped off the rod repeatedly.
In general terms: The rotarod test checks motor coordination on a turning rod.

In the next assay the test system is MCP-1. Description: MCP-1 level in ischemic brain (ELISA). Type of assay: in vivo, Wistar rats. To be noted: HHcy rats, MCAO 60 minutes, six hours of reperfusion, NVP-AAM077 1.2 mg/kg intravenous at onset of insult. The method, then:
(§2) Wistar rats were made hyperhomocysteinemic using osmotic pump containing L-homocysteine. Animals were hyperhomocysteinemic (19-23 μM) within three days of pump implantation. Ischemic stroke was induced by MCAO for 60 minutes followed by reperfusion for six hours. Tissue punches from the ipsilateral striatum and cortex were lysed in ice-cold Phosphate buffered saline (pH 7.4) containing phosphatase inhibitor, sonicated three times in five-second bursts and placed on ice (two minutes) between each burst of sonication. The lysed cell suspensions were centrifuged at 10,000 rpm (10 minutes) and the supernatant was collected in another tube. Equal amounts of protein from the supernatant were processed for PGE2 and MCP-1 levels using respective ELISA kit.
In general terms: In an ELISA, binding on a coated surface is turned into a signal by an enzyme label.

The next assay deals with PGE2. The assay is described as follows: PGE2 level in ischemic brain (ELISA). Type of assay: in vivo, Wistar rats. To be noted: HHcy rats, MCAO 60 minutes, six hours of reperfusion, NVP-AAM077 1.2 mg/kg intravenous at onset of insult. The method, then:
as §2

Assay [4] concerns hyperhomocysteinemic rats subjected to MCAO. The assay is described as follows: Adhesive removal test after MCAO. To be noted: HHcy rats, 9 days after MCAO, NVP-AAM077 1.2 mg/kg. Type of assay: in vivo, male Wistar rats. The method, then:
as §1
Adhesive removal test: Sensorimotor deficits following stroke was assessed by performing the adhesive removal test in control, hyperhomocysteinemic and NVP-AAM077 treated hyperhomocysteinemic rats. A small adhesive patch (7 mm×3 mm) was applied to the contralateral forepaw of each rat with equal pressure and the time taken to notice the presence of the patch (time to contact) and to remove it (time to remove) was recorded (Bouet et al., 2009, Nat Protoc 4:1560-1564). The time taken to notice the patch was recorded from the moment of placing the patch until the paw was shaken or touched by mouth. The time taken to remove the patch was recorded from the moment the mouth touched the paw to the time the patch was removed. The trial ended after the adhesive patch was removed or a maximum latency of three minutes. […]

This note sets out measurements from US11541065B2, “Compositions and methods for treating brain injury” (UNM RAINFOREST INNOVATIONS, priority 2018, dated 2023).

Structures are written as SMILES.

On to `N[C@@H](CCS)C(=O)O` [L-homocysteine], for which the COX2 protein level result with COX2 (GluN2A-KO mice cultures) was “fails to augment COX2 protein expression”; in the assay with COX2 (WT mice cultures), “leads to increase in COX2 protein level”. Also, in assay [1], the OGD-induced cell death entry is on record as “increases by two-fold”. Also, the neuronal death result in assay [2] (cultures from GluN2A KO mice) is “fails to induce neurotoxicity”; in assay [2] (cultures from WT mice), “significantly increases neuronal death”. Further, the cell death result in assay [2] (neurons from GluN2A-NMDAR knockout mice) is reported as “fails to alter cell death”; in assay [2] (neurons from WT mice) it was “significant increase in cell death”.

Turning to `C[C@H](NC(c1cccc2[nH]c(=O)c(=O)[nH]c12)P(=O)(O)O)c1ccc(Br)cc1` (stereo partly drawn) [NVP-AAM077, ({[(1S)-1-(4-bromophenyl)ethyl]amino}-(2,3-dioxo-1,4-dihydroquinoxalin-5-yl)methyl)phosphonic acid], the “latency to fall from accelerated rotarod” value in assay [3] was found to be 112.51 ± 4.9 s. In addition, the “MCP-1 level in ischemic hemisphere (cortex and striatum)” value in the assay on MCP-1 was “attenuated the increase in the level of both PGE2 and MCP-1”. Also, the “PGE2 level in ischemic hemisphere (cortex and striatum)” value in the assay on PGE2 was “attenuated the increase in the level of both PGE2 and MCP-1”. In assay [4] (untreated HHcy 76.82±5.45 s), the “time to contact adhesive tape, contralateral forepaw” value was 31.18 ± 5.68 s. The “time to remove adhesive tape, contralateral forepaw” value in assay [4] (untreated HHcy 127.86±7.29 s) was determined as 44.24 ± 7.59 s.
